Experimental data published in US20220267271A1, “WNT ACTIVATORS AND METHODS OF USE” (MAYO FOUNDATION FOR MEDICAL EDUCATION AND RESEARCH, priority 2019, published 2022).

Columns and labels:
GSK3β = GSK3β phosphorylation (Ser9) in N2a cells by Western blotting; type: cell-based; conditions: 0.8 μM and 1.6 μM, 24 h
Description: N2a cells were treated with 1011 at the indicated concentrations for 24 h. (A) the levels of β-catenin, GSK3β and GSK3β phosphorylation (Ser9) were examined by Western blotting. (B) the intensity of the GSK3β phosphorylation bands were quantified and normalized to the corresponding signal for total GSK3β. The results represented in the histograms are shown as the mean±SD and are the average of 3 independent experiments. *P<0.05, **P<0.01 versus corresponding control value.
Western blotting: Cells in 6-well plates were lysed in 0.5 ml of lysis buffer (phosphate-buffered saline containing 1% Triton X-100, 1× Proteinase inhibitor cocktail Complete, and 1 mM PMSF) at 4° C. for 15 min. Equal quantities of protein were subjected to SDS-PAGE under reducing conditions. Following transfer to immobilon-P transfer membrane, successive incubations with a primary antibody, and a horseradish peroxidase-conjugated secondary antibody or IRDye® 680RD goat anti-rabbit/mouse secondary antibodies were carried out for 60-120 min at room temperature. The immunoreactive proteins were then detected using the ECL system or the Odyssey infrared imaging system (LI-COR). Films showing immunoreactive bands were scanned by Hp Scanjet 5590.

Wnt/β-catenin signaling = Wnt/β-catenin signaling in human iPSC-derived neurons (Western blot, qPCR); type: cell-based
Description: (§1) Human iPSC-derived neurons were treated with 1015 (0.4 μM) for 48 h, and the mRNA levels of axin2 (B), neuroD1 (C) and SOX2 (D) were determined by qPCR. All the values are the average of three independent experiments with the SE values indicated by error bars. * P<0.05, ** P<0.01 verse corresponding control. (E) Human iPSC-derived neurons were treated with 1015 (0.4 μM) for 48 h, and the levels of phopspho-tau (p-tau) and total tau were determined by Western blotting with specific antibodies AT8 and HT7, respectively. This experiment is a representative of two such experiments performed with similar data.
(§2) NeuroD1, a proneural basic helix-loop-helix (bHLH) transcription factor, plays a critical role in CNS development, and is important for survival of neuronal progenitor cells. There is a TCF/LEF regulatory element in the Neurod1 promoter, and NeuroD1 is a specific target of Wnt/β-catenin signaling. […] In addition, 1015 also induces neural stem cell marker SOX2 expression in human iPSC-derived neurons ([…]). Importantly, 1015 suppresses tau phosphorylation in human iPSC-derived neurons (FIG. 16 at D).

tau = assay: Tau phosphorylation in human iPSC-derived neurons (Western blot AT8/HT7); type: cell-based; conditions: 0.4 μM, 48 h
Description: as §1, §2

PS19 mice = assay: Efficacy study in PS19 mice (tauopathy model); type: in vivo; conditions: IP 15 mg/kg once daily, 8 weeks
Description: PS19 mice at 33 weeks of age were treated with 1015 (IP, 15 mg/kg) or vehicle [Kolliphor HS-physiological saline (20%:80%)] by a once daily dose schedule for 8 weeks (5 injections per week). (A) Body weight changes during the course of treatment were assessed. (B) The level of Wnt specific target neuroD1 in cortex was determined by qPCR. All the values are the average of from 5-7 mice with the SE values indicated by error bars.* P<0.05, * P<0.01 verse Non-Tg treated with vehicle or PS19 mice treated with vehicle.
(A) PS19 mice at 33 weeks of age were treated with 1015 (IP, 15 mg/kg) or vehicle [Kolliphor HS-physiological saline (20%:80%)] by a once daily dose schedule for 8 weeks (5 injections per week). The levels of tau phosphorylation (p-tau) and total tau in cortex were determined by Western blotting with p-tau antibody AT8, p-tau antibody AT180, and tau antibody HT7, respectively. (B) The intensities of p-tau bands were quantified and normalized to the corresponding signal for actin. The results represented in the histograms are shown as the mean±SE, n=5.
PS19 mice at 33 weeks of age were treated with 1015 (IP, 15 mg/kg) or vehicle [Kolliphor HS-physiological saline (20%:80%)] by a once daily dose schedule for 8 weeks (5 injections per week). (A-D) The levels of cytokines IL6, TNFa, TGF1b and IL1b in cortex were determined by qPCR. All the values are the average of from 5-7 mice with the SE values indicated by error bars. * P<0.05, * P<0.01, ** P<0.001.
1015 activates Wnt/β-catenin signaling and prevents body weight loss in PS19 mice: PS19 is a widely used tauopathy model which recapitulates many AD-related phenotypes. […] Therefore, the PS19 mouse model was used for efficacy studies. There was a noticeable drop in weight in all groups after initiation of daily dosing in each group, which is most likely a consequence of the sudden daily manipulation of the mice (FIG. 17 at A).

Row | Compound | GSK3β phosphorylation at Ser9 (GSK3β) | NeuroD1 expression (mRNA) (Wnt/β-catenin signaling; 0.4 μM, 48 h) | Wnt specific target axin2 expression (mRNA) (Wnt/β-catenin signaling; 0.4 μM, 48 h) | neural stem cell marker SOX2 expression (mRNA) (Wnt/β-catenin signaling; 0.4 μM, 48 h) | Wnt co-receptor LRP6 level (Wnt/β-catenin signaling; 24 h) | tau phosphorylation (tau) | body weight loss (PS19 mice; 5 injections per week) | tau phosphorylation in cortex (PS19 mice; AT8 and AT180) | neuroD1 expression in brain (PS19 mice; cortex, qPCR) | neuroinflammatory cytokine expression (IL6, TNFa, TGF1b, IL1b) (PS19 mice; cortex, qPCR)
1 | CC1CCCC(C)N1CCNC(=O)c1ccc(C(=O)Nc2ccccc2N)nc1 (stereo not shown) [Compound 1011] | significantly enhanced |  |  |  |  |  |  |  |  | 
2 | Nc1ccccc1NC(=O)c1ccc(C(=O)NCC2CCN2C2CCCC2)cn1 (stereo not shown) [Compound 1015] |  | significantly enhances | increases | induces | enhances | suppresses | significantly prevented | significantly suppresses | restored, but not over induced | inhibited
